Our source for the melting point values is a melting point compilation (Tetko et al.; mined from patent text by program, amines drawn as free bases though some values may be those of a salt).

In general, melting point refers to the temperature of the solid-liquid transition. As to `CCCCc1nc2c(N)nc3ccccc3c2n1CCN`, the melting point was in the range of 196 to 199 °C. As for `C=CCSc1nc(N)nc2c1ncn2C1C=CC(CO)C1` (stereo not drawn), the figure is 108 to 110 °C; as for `CCOC(=O)c1nn(-c2ccc(C=O)cc2)nc1-c1ccccc1`, 96 to 97 °C. In the case of `O=c1ccc2cc(C(O)(C(F)(F)F)C(F)(F)F)cc3c2n1CCC3`, the melting point was in the range of 295 to 296 °C. With `COc1cc(N)c(Cl)cc1-c1nn(C2CC3CCC(C2)N3C)c(=O)o1` (stereo not drawn) the figure was 208 °C.

Consider `O=C(CCc1ccccc1)Nc1cc(-c2nnc(CCc3cccc(C(F)(F)F)c3)o2)ccn1`, for which the melting point was in the range of 169 to 170 °C. With `COCc1nc2c(N)nc3c(c2n1CC(C)(C)OCCS(C)(=O)=O)CCCC3` the figure was 195 to 197 °C; with `CNc1nc2ccccc2c2c1ncn2C`, 216 to 218 °C; with `Cc1c(Cl)c2c(c3oc4ccccc4c(=O)c13)CC(C(=O)O)O2` (stereo not drawn), 284 to 287 °C. For `CN(C)CCCOc1ccc(-c2ccc3nnn(Cc4ccc5ncccc5c4)c3n2)cc1F`, the melting point fell in the range of 102 to 105 °C. With `O=C(Nc1ccc(C=C2c3ccccc3CCc3ccccc32)cc1)c1ccncc1`, the melting point was determined as 252 °C. Molecule `COc1ccc(CC(O)c2ccccn2)cc1OC` (stereo not drawn) yielded a melting point of 93 to 94 °C. As for `CC(C)(C)OC(=O)N1CCC(c2n[nH]c(-c3ccccn3)n2)CC1`, the figure is 220 °C; as for `COC(=O)C1=C(C)NC(C)=C(C(=O)OC(C)C)C1c1cccc([N+](=O)[O-])c1` (stereo not drawn), 142 to 144 °C; as for `O=C(NC1=NN(c2ccc(Cl)cc2)C(c2ccc(Cl)cc2)C1)C(F)(F)F` (stereo not drawn), 138 to 140 °C.

The molecule `O=C(CCC(O)=NO)c1cccs1` yielded a melting point of 133 to 138 °C.

As to `Nc1cccc(Nc2ncc(-c3cccnc3)s2)c1`, the melting point was 162 °C. With `CCCCCCCOc1ccc(COc2ccc(-c3ccc(OC(C)CCCCCC)cc3)cc2)cc1` (stereo not drawn) the figure was 98.1 °C. As for `COCc1c(C#CBr)ncc2[nH]c3cccc(OCc4ccccc4)c3c12`, the figure is 160 °C; as for `O=C(Nc1ccc(C(F)(F)F)cc1)Nc1nc(Cl)cc(Cl)n1`, 99 to 101 °C. `CNC(=O)c1ccc(N2CCN(Cc3cc4c(c(OC)c3)OC(C)C(=O)N4)CC2)cc1` (stereo not drawn) displayed a melting point of 256 °C. With `c1ccc2c(c1)ncn2CN1CCN(Cn2cnc3ccccc32)CC1` the figure was 250 to 253 °C; with `CC(=O)c1ccc(O)c(CCCc2ccccc2)c1O`, 120 to 122 °C.

As to `O=C(O)c1ccccc1C(=O)NCCN1CCN(CCOC(c2ccccc2)c2ccccc2)CC1`, the melting point is 45 °C. Regarding `CC(=O)NC1Cc2ccccc2C1`, the melting point was in the range of 126 to 128 °C. With `CNC(=O)C(Cc1ccc(OC)cc1)NC(=O)C(CC(C)C)C(S)CC(=O)N1CCN(C)CC1` (stereo not drawn) the figure was 65 to 68 °C; with `Brc1ccc(CCCCn2ccnc2)cc1`, 40 °C. For `CC(C)(C)c1cc(C=Cc2ccccc2NC(=O)NC23CC4CC(CC(C4)C2)C3)cc(C(C)(C)C)c1O`, the melting point was in the range of 205 to 211 °C. `CN(C)C/C=C/C(=O)N1CCOc2cc3ncc(C#N)c(Nc4ccc(F)c(Cl)c4)c3cc21`: the melting point is 199 to 200 °C. `CCCC(=O)Oc1ccc(C2=NNC(=O)CC2C)cc1` (stereo not drawn): the melting point fell in the range of 112 to 113 °C. With `COc1ccc(C(O)(C(F)(F)F)C(F)(F)F)cc1C=O` the figure was 160 to 161 °C; with `COc1cc(OC)nc(NC(=O)NS(=O)(=O)c2ncccc2-c2ccccc2)n1`, 181 °C; with `CCCCCCCc1ccc(-c2ccc(-c3cc(F)cc(F)c3)cc2)nc1`, 185 to 186 °C.

`O=C1c2ccc([N+](=O)[O-])c3c([N+](=O)[O-])ccc(c23)C(=O)N1O` showed a melting point of 290 to 291 °C. The molecule `Cc1ccc(SN=C2C(=O)N3C(C(=O)OC(c4ccccc4)c4ccccc4)=C(CSc4nnnn4C)CSC23)cc1` (stereo not drawn) gave a melting point of 154 to 155 °C. As for `C=CCC1(O)CCC2C3CCC4=CC(=O)CCC4C3CCC21CCC` (stereo not drawn), the figure is 135 to 137 °C; as for `COc1cccc(NC(=O)c2ccccc2C(=O)O)c1`, 168 to 169 °C. `C=CCc1cc(C=CC(=O)O)ccc1O` showed a melting point of 132 to 133 °C. Take `CC(C)c1ccnc(C(=O)c2[nH]c3cc(Cl)ccc3c2CC(=O)O)c1`: the melting point is 194 to 196 °C.

The molecule `Cc1c(NC(=O)CC(C)(C)C)c(C)c2c(c1-c1cccc([N+](=O)[O-])c1)OCC2c1ccc(C(C)C)cc1` (stereo not drawn) displayed a melting point of 209 to 210 °C. Molecule `COc1ccc(S(=O)(=O)N(C(=O)C(F)(F)F)c2ccc(Cl)cc2Cc2c(F)cccc2F)cc1OC` displayed a melting point of 79.7 °C. Turning to `O=c1c2ccc(-c3nnn[nH]3)cc2oc2ccc(OCCCO)cc12`, the melting point amounted to 270 °C.

Molecule `CCCCCCCCCCOc1cc2oc3ccc(C(=O)O)cc3c(=O)c2cc1CCC(=O)O` registered a melting point of more than 210 °C.

Molecule `Cc1c(F)c(F)c(C(=O)N[C@@H](C)C(C)C)c(F)c1F` gave a melting point of 146 to 147 °C. Consider `O=C(NNc1ccc([N+](=O)[O-])cc1)c1ccccc1`, for which the melting point is 194 to 195 °C. Take `Cc1cccc(CCOc2ccc(CC3SC(=O)NC3=O)cc2)n1` (stereo not drawn): the melting point fell in the range of 156 to 157 °C. `COc1ccc(CNc2nnc(N3CCC(CO)CC3)c3ccc(Cl)cc23)cc1Cl`: the melting point lay in the range of 128 to 131 °C. As for `Cc1cc(C)cc(NC(=O)CO)c1`, the figure is 114 °C; as for `NC(=O)NCc1cccc(-c2csc(N=C(N)N)n2)c1`, 230 to 232 °C; as for `CC(C)(C)c1ccc(CCC(=O)N2C(=O)OC[C@@H]2Cc2ccccc2)cc1`, 123 to 126 °C. With `O=C(N[C@H]1C[C@H](C(=O)O)Nc2cc(Cl)cc(Cl)c21)c1ccccc1Cl` (relative stereo) the figure was 141 to 143 °C; with `Cc1ccc(S(=O)(=O)N(CCc2cccs2)CC(=O)N[C@@H](Cc2ccccc2)C(=O)O)cc1`, more than 200 °C.

In turn, `COCOc1ccc(-c2ncc3ncc(Cl)cc3n2)cc1` registered a melting point of more than 268 °C. As for `COc1cc2[nH]c(SCc3nccc(N4CCOCC4)c3F)nc2cc1C`, the melting point lay within 124 to 126 °C. As for `Cc1nn(C)cc1C(=O)NC(C#N)c1ccsc1` (stereo not drawn), the figure is 113 to 114 °C; as for `O=C(O)CCCCOc1ccc(N2CCN(c3ccncc3)CC2)cc1`, 237 to 241 °C. On to `S=C1Nc2ccccc2Cn2nnnc21`, for which the melting point was in the range of 275 to 277 °C.

`COc1ccc(N2CCN(c3c(C)c(C)c4c(c3C)CC(C)O4)CC2)cc1C` (stereo not drawn) registered a melting point of 141 to 142 °C. As for `CN(C)CCOc1ccc(-c2nnc(CSCCOc3ccccc3)o2)cc1`, the figure is 62 to 64 °C; as for `CS(=O)(=O)c1ccc(C(CC2CCCC2)C(=O)Nc2cnc(CC#N)cn2)cc1Cl` (stereo not drawn), 79 to 82 °C; as for `CC(C)(C)c1ccc(-c2sc(N)c(C(=O)c3ccc(Cl)cc3)c2CN(C2CCCCC2)C2CCCCC2)cc1`, 180 to 184 °C. As for `COc1ccc(S(=O)(=O)C2(C(=O)O)CCN(Cc3ccc(-c4ccccn4)cc3)CC2)cc1`, the figure is 217 °C. With `Nc1cc(F)c(Cl)c(F)c1N` the figure was 77 to 78 °C.
